From the supplement of paper PMC10307832

Key:
Assay in all cases: relative viability (nuclei count vs DMSO), 5 days (fraction); higher = more cells survive
Motesanib + Crizotinib = compound: CC1(C)CNc2cc(NC(=O)c3cccnc3NCc3ccncc3)ccc21 [Motesanib] + C[C@@H](Oc1cc(-c2cnn(C3CCNCC3)c2)cnc1N)c1c(Cl)ccc(F)c1Cl [Crizotinib] (partner 1 µM)
Outline: (§1)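 Lung cancer cell lines in 1536-well plates got either a single drug or a fixed anchor-drug dose together with five library-drug doses (not always all listed) in √10 steps, by pin tool, on the day after seeding. Nuclei were counted after 5 days, and relative viability is the treated-to-vehicle ratio of nuclei counts. Values are medians of duplicate plates.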

[1] = compound: C[C@@]1(C(=O)Nc2ccc(F)nc2)CCCN1c1nc(Nc2cc(C3CC3)n[nH]2)c2cccn2n1 + O=C(CCCCCCC(=O)Nc1ccccc1)NO [Vorinostat] (partner 1 µM)
Outline: as §1

[2] = compound: C[C@@]1(C(=O)Nc2ccc(F)nc2)CCCN1c1nc(Nc2cc(C3CC3)n[nH]2)c2cccn2n1 + Cc1cc(Nc2cc(N3CCN(C)CC3)nc(Sc3ccc(NC(=O)C4CC4)cc3)n2)n[nH]1 [Tozasertib] (partner 0.1 µM)
Outline: as §1

Motesanib + Decitabine = compound: CC1(C)CNc2cc(NC(=O)c3cccnc3NCc3ccncc3)ccc21 [Motesanib] + Nc1ncn([C@H]2C[C@H](O)[C@@H](CO)O2)c(=O)n1 [Decitabine] (partner 2 µM)
Outline: as §1

Cell Line | relative viability (Motesanib + Crizotinib; first compound 0.01 µM) | relative viability (Motesanib + Crizotinib; first compound 0.03162 µM) | relative viability (Motesanib + Crizotinib; first compound 0.1 µM) | relative viability (Motesanib + Crizotinib; first compound 0.3162 µM) | relative viability (Motesanib + Crizotinib; first compound 1 µM) | relative viability ([1]; first compound 0.04 µM) | relative viability ([1]; first compound 0.1265 µM) | relative viability ([1]; first compound 0.4 µM) | relative viability ([1]; first compound 1.265 µM) | relative viability ([2]; first compound 0.04 µM) | relative viability ([2]; first compound 0.1265 µM) | relative viability ([2]; first compound 0.4 µM) | relative viability ([2]; first compound 1.265 µM) | relative viability (Motesanib + Decitabine; first compound 0.01 µM) | relative viability (Motesanib + Decitabine; first compound 0.03162 µM) | relative viability (Motesanib + Decitabine; first compound 0.1 µM) | relative viability (Motesanib + Decitabine; first compound 0.3162 µM) | relative viability (Motesanib + Decitabine; first compound 1 µM)
SW 1573 | 0.686 | 0.887 | 0.913 | 0.746 | 0.973 | 0.667 | 0.585 | 0.482 | 0.263 | 0.15 | 0.16 | 0.172 | 0.182 | 0.532 | 0.511 | 0.458 | 0.586 | 0.553
NCI-H727 | 0.96 | 0.839 | 0.786 | 0.808 | 0.723 | 1.3 | 0.774 | 0.774 | 0.474 | 0.525 | 0.355 | 0.352 | 0.379 | 0.861 | 0.927 | 0.929 | 0.804 | 0.937
NCI-H441 | 0.596 | 0.785 | 1.02 | 0.846 | 0.803 | 0.55 | 0.3 | 0.397 | 0.511 | 0.496 | 0.403 | 0.349 | 0.369 | 0.271 | 0.307 | 0.502 | 0.514 | 0.478
LOU-NH91 | 0.743 | 0.746 | 0.743 | 0.769 | 0.729 | 0.961 | 0.856 | 0.747 | 0.711 | 0.641 | 0.635 | 0.56 | 0.447 | 0.829 | 0.815 | 0.848 | 0.838 | 0.809
NCI-H3122 | 0.253 | 0.27 | 0.285 | 0.295 | 0.267 | 0.91 | 0.972 | 0.916 | 0.879 | 0.373 | 0.541 | 0.219 | 0.306 | 0.436 | 0.409 | 0.422 | 0.548 | 0.614
NCI-H460 | 0.935 | 0.75 | 0.945 | 0.927 | 0.902 | 0.829 | 0.431 | 0.555 | 0.302 | 0.525 | 0.487 | 0.26 | 0.136 | 0.531 | 0.453 | 0.467 | 0.568 | 0.543
NCI-H650 | 0.774 | 0.685 | 0.874 | 0.71 | 0.522 | 0.42 | 0.195 | 0.334 | 0.257 | 0.714 | 0.479 | 0.523 | 0.398 | 0.31 | 0.319 | 0.312 | 0.382 | 0.529
NCI-H661 |  | 0.945 | 1.09 | 0.978 | 1.1 | 0.781 | 0.774 | 0.815 | 0.559 | 0.37 | 0.345 | 0.369 | 0.338 | 0.486 | 0.528 | 0.556 | 0.631 | 0.625
NCI-H1734 | 0.685 | 0.645 | 0.654 | 0.68 | 0.673 | 0.71 | 0.58 | 0.486 | 0.421 | 0.234 | 0.246 | 0.26 | 0.242 | 0.51 | 0.675 | 0.695 | 0.613 | 0.869
